Like-named read-outs stand apart in the source and are kept apart here.
Tests used:
[1] = molecular target: BTK (Homo sapiens (Human), UniProt Q06187); test: BTK degradation in OCI-LY10 cells (Total-BTK HTRF kit); format: cell-based; settings: 24 (or 6) h incubation; for DC50 / BTK degradation in OCI-LY10 cells Dmax: OCI-LY10 cells; for DC50: DC50 = concentration when degradation rate reaches 50%, read-out: OCI-LY10 cell BTK degradation DC50; for Dmax: OCI-Ly10, OCI-LY10 cells; for Dmax / BTK degradation in OCI-LY10 cells Dmax: maximum degradation rate
Method: The detection was carried out using the Total-BTK Kits (cisbio, 63ADK064PEH), and 4× Supplemented Lysis buffer was prepared using the Blocking reagent stock solution (100×) and Lysis buffer stock solution (4×). Premixed antibody solutions were prepared using the Detection buffer, Total-BTK d2 antibody, and Total-BTK Eu Cryptate antibody.
OCI-LY10 cells in a good growth state were collected and added to a centrifuge tube, adjusted to a cell density of 4.17×10^6 cells/mL, and seeded in a 384-well plate (12 μL/well). The cells were incubated overnight in a cell incubator. Compounds were added using a nanoliter pipettor such that the final concentrations of the compounds were 100 nM-0.098 nM; the addition was performed in duplicate, and meanwhile, a control was set. After another 24 (or 6) h of incubation in the cell incubator, the 4× Supplemented Lysis buffer was added at 4 μL/well to lyse the cells. After the cells were shaken for 40 min at room temperature, the Premixed antibody solutions were added at 4 μL/well, and the cells were left to stand overnight at room temperature. Fluorescence values of the cells were detected at 665 nm/620 nm using an Envision microplate reader, the four-parameter analysis was performed, the dose-response curves were fit, and DC50 (the concentration of the drug when the degradation rate reaches 50%) and Dmax (the maximum degradation rate) were calculated.

[2] = test system: OCI-LY10 cells; test: Inhibitory activity on OCI-LY10 cell proliferation (CCK-8); format: cell-based
Method: (§1) OCI-LY10 cells in a good growth state were collected and added to a centrifuge tube, adjusted to a cell density of 1×10^5 cells/mL, and seeded in a 96-well plate (100 μL/well). The cells were incubated overnight in a cell incubator. Compounds were added using a nanoliter pipettor such that the final concentrations of the compounds were 5000 nM-0.31 nM; the addition was performed in duplicate, and meanwhile, a control was set. After another 72 h of incubation in the cell incubator, 10 μL of CCK-8 (CK04, PP799) was added. After 2.5 h of incubation in the cell incubator, absorbance values were detected at 450 nm using an Envision microplate reader, the four-parameter analysis was performed, the dose-response curves were fit, and IC50 was calculated.

[3] = test system: TMD8-BTK(C481S) cells; test: Inhibitory activity on TMD8-BTK(C481S) cell proliferation (CCK-8); format: cell-based; settings: 72 h incubation
Method: as §1, with “TMD8-BTK(C481S)” for “OCI-LY10”, “8×10^4” for “1×10^5”, “4” for “2.5”

[4] = Mouse pharmacokinetics; format: in vivo, ICR mice; settings: for clearance / half-life / AUC / Cmax: ICR, mouse, plasma; for AUC: read-out: AUC; for Cmax: read-out: Cmax
Method: ICR mice weighing 18-22 g were randomized into groups of 9 after 3-5 days of acclimatization and then intragastrically given the test compound solution at a dose of 10 mg/kg. Plasma samples to be tested were prepared by taking blood from the orbit at time points of 15 min, 30 min, 1 h, 2 h, 3 h, 4 h, 6 h, 8 h, 10 h, and 24 h. 20 μL of each plasma sample to be detected and a standard curve sample were taken, and an acetonitrile solution containing an internal standard was added. […] Pharmacokinetic parameters were fitted using a non-compartmental model (see Table 5).

[5] = test system: OCI-LY10-BTK(C481S) cells; test: Inhibitory activity on OCI-LY10-BTK(C481S) cell proliferation (CCK-8); format: cell-based; settings: 72 h incubation, IC50 per method, unit inferred
Method: OCI-LY10(C481S) cells in the logarithmic growth phase were collected and added to a centrifuge tube, adjusted to a cell density of 5×10^4 cells/mL, and seeded in a 96-well plate (100 μL/well). Meanwhile, compounds were added using a nanoliter pipettor such that the final concentrations of the compounds were 5000 nM-0.31 nM; the addition was performed in duplicate, and meanwhile, a control was set. After another 72 h of incubation in the cell incubator, the detection reagent CCK-8 (manufacturer: Dojindo Laboratories, Beijing; 10 μL/well) was added. After 3 h of incubation in the cell incubator, absorbance values were detected at 450 nm using a PerkinElmer Envision microplate reader, the four-parameter analysis was performed, the dose-response curves were fit, and IC50 was calculated.

[6] = Homo sapiens, OCI-Ly10, 72 h incubation
[7] = po, 10 mg/kg, Mouse i.g. 10 mpk

Sequence of BTK (Q06187 whole entry): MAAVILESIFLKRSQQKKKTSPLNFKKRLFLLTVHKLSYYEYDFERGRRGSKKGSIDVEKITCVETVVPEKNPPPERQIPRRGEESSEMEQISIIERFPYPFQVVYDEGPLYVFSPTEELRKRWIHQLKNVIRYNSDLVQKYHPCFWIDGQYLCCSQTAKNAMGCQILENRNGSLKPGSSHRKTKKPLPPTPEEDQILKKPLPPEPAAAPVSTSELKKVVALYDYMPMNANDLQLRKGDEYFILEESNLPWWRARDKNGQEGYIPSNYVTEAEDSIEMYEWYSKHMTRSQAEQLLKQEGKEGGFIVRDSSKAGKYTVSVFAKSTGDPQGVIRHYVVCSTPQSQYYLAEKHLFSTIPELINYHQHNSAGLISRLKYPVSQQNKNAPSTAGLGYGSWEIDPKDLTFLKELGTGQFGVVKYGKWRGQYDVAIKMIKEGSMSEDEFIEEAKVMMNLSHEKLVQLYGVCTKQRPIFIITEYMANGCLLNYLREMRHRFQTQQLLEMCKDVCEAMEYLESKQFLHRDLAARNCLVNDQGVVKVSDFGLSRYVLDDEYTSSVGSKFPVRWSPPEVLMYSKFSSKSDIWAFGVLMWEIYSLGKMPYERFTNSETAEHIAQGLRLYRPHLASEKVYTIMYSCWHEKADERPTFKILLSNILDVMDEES

CN1CCN([C@@H]2CCCN(c3cnc(C(N)=O)c(Nc4ccc(C5CCN(CC6CN(c7ccc8c(C9CCC(=O)NC9=O)noc8c7)C6)CC5)cc4)n3)C2)C1=O (stereo partly shown) [Compound 9]
DC50 [1]: < 0.098 nM
Dmax [1]: 99%
IC50 [2, 6]: < 0.31 nM
IC50 ([3]; 72 h): 1.2 nM
clearance ([4]; iv, 1 mg/kg, Mouse i.v. 1 mpk): 5.52 mL/min/kg
half-life ([4]; iv, 1 mg/kg, Mouse i.v. 1 mpk): 1.5 h
AUC ([4]; iv, 1 mg/kg, Mouse i.v. 1 mpk): 2970 ng·h/mL
half-life [4, 7]: 2.6 h
AUC [4, 7]: 13700 ng·h/mL
Cmax [4, 7]: 1390 ng/mL
F ([4]; Mouse i.g. 10 mpk): 46.10%

CN1CCN([C@@H]2CCCN(c3cnc(C(N)=O)c(Nc4ccc(C5CCC6(CC5)CN(CC5CN(c7ccc8c(C9CCC(=O)NC9=O)noc8c7)C5)C6)cc4)n3)C2)C1=O (stereo partly shown) [Compound 11]
DC50 [1]: < 0.098 nM
Dmax [1]: 99%
IC50 [2, 6]: < 0.31 nM
IC50 ([3]; 72 h): 14 nM

CN1CCN([C@@H]2CCCN(c3cnc(C(N)=O)c(Nc4ccc(C5CCN(C[C@@H]6CCC(n7ccc8c9c(C%10CCC(=O)NC%10=O)noc9ccc87)C6)CC5)cc4)n3)C2)C1=O (stereo partly shown) [Compound 15]
DC50 [1]: < 0.098 nM
BTK degradation in OCI-LY10 cells Dmax [1]: 100%
IC50 ([2]; 72 h incubation): < 0.31 nM
IC50 [5]: < 0.31 nM

CN1CCN([C@@H]2CCCN(c3cnc(C(N)=O)c(Nc4ccc(N5CCC(CN6Cc7ccc8c(C9CCC(=O)NC9=O)noc8c7C6)CC5)cc4)n3)C2)C1=O (stereo partly shown) [Compound 24]
Dmax [1]: > 90%
IC50 [2, 6]: < 0.31 nM
IC50 ([5]; 72 h): 0.5 nM

CN1CCN([C@@H]2CCCN(c3cnc(C(N)=O)c(Nc4ccc(N5CCC(CN6CCc7ccc8c(C9CCC(=O)NC9=O)noc8c7C6)CC5)cc4)n3)C2)C1=O (stereo partly shown) [Compound 26]
Dmax [1]: > 90%
IC50 [2, 6]: < 0.31 nM
IC50 ([5]; 72 h): 0.26 nM

CN1CCN([C@@H]2CCCN(c3cnc(C(N)=O)c(Nc4ccc5c(c4)CCN(CC4Cc6ccc7c(C8CCC(=O)NC8=O)noc7c6C4)C5)n3)C2)C1=O (stereo partly shown) [Compound 40]
Dmax [1]: > 90%
IC50 ([5]; 72 h): 0.51 nM

CN1CCN([C@@H]2CCCN(c3cnc(C(N)=O)c(Nc4ccc5c(c4)CN(CC4Cc6ccc7c(C8CCC(=O)NC8=O)noc7c6C4)C5)n3)C2)C1=O (stereo partly shown) [Compound 44]
Dmax [1]: > 90%
IC50 ([5]; 72 h): 0.56 nM

CN1CCN([C@@H]2CCCN(c3cnc(C(N)=O)c(Nc4ccc5c(c4)CN(C4CN(CC6Cc7ccc8c(C9CCC(=O)NC9=O)noc8c7C6)C4)C5)n3)C2)C1=O (stereo partly shown) [Compound 46]
Dmax [1]: > 90%
IC50 ([5]; 72 h): 0.66 nM

CN1CCN([C@@H]2CCCN(c3cnc(C(N)=O)c(Nc4ccc5c(c4)CN(C4CN(CC6Cc7ccc8c(C9CCC(=O)NC9=O)noc8c7C6)C4)C5)n3)C2)C1=O (stereo partly shown) [Compound 47]
BTK degradation in OCI-LY10 cells Dmax [1]: >90%
IC50 [5]: 0.62 nM

CN1CCN([C@@H]2CCCN(c3cnc(C(N)=O)c(Nc4ccc(C5CCC6(CC5)CN(CC5Cc7ccc8c(C9CCC(=O)NC9=O)noc8c7C5)C6)cc4)n3)C2)C1=O (stereo partly shown) [Compound 53]
DC50 [1]: < 0.098 nM
Dmax [1]: 96%
IC50 [2, 6]: < 0.31 nM
IC50 [3]: 2.8 nM

NC(=O)c1ncc(N2CCCCC2)nc1Nc1ccc(N2CCC(N3CCc4ccc5c(C6CCC(=O)NC6=O)noc5c4CC3)CC2)cc1 (stereo not shown) [Compound 62]
Dmax [1]: > 90%
IC50 [2, 6]: < 0.31 nM
IC50 ([3]; 72 h): 8.2 nM

CN1CCN([C@@H]2CCCN(c3cnc(C(N)=O)c(Nc4ccc5c(c4)CCC4(CCN(CC6Cc7ccc8c(C9CCC(=O)NC9=O)noc8c7C6)CC4)O5)n3)C2)C1=O (stereo partly shown) [Compound 77]
Dmax [1]: > 90%
IC50 [2, 6]: < 0.31 nM
IC50 ([3]; 72 h): 23 nM

CN1CCN([C@@H]2CCCN(c3cnc(C(N)=O)c(Nc4ccc(C5CC6CCCC(C5)N6C5Cc6ccc7c(C8CCC(=O)NC8=O)noc7c6C5)cc4)n3)C2)C1=O (stereo partly shown) [Compound 79]
Dmax [1]: > 90%
IC50 [2, 6]: < 0.31 nM
IC50 ([3]; 72 h): 12 nM

CN1CCN([C@@H]2CCCN(c3cnc(C(N)=O)c(Nc4ccc(C5CC6CCCC(C5)N6C5Cc6ccc7c(C8CCC(=O)NC8=O)noc7c6C5)cc4)n3)C2)C1=O (stereo partly shown) [Compound 80]
BTK degradation in OCI-LY10 cells Dmax [1]: >90%
IC50 ([2]; 72 h incubation): < 0.31 nM
IC50 [3]: 11 nM

CN1CCN([C@@H]2CCCN(c3cnc(C(N)=O)c(Nc4ccc(C5CC6CCCC(C5)N6CC5Cc6ccc7c(C8CCC(=O)NC8=O)noc7c6C5)cc4)n3)C2)C1=O (stereo partly shown) [Compound 81]
Dmax [1]: > 90%
IC50 [2, 6]: < 0.31 nM
IC50 ([3]; 72 h): 11 nM

CN1CCN([C@@H]2CCCN(c3cnc(C(N)=O)c(Nc4ccc(C5CC6CCCC(C5)N6CC5Cc6ccc7c(C8CCC(=O)NC8=O)noc7c6C5)cc4)n3)C2)C1=O (stereo partly shown) [Compound 82]
BTK degradation in OCI-LY10 cells Dmax [1]: >90%
IC50 ([2]; 72 h incubation): < 0.31 nM
IC50 [3]: 11 nM

CN1CCN([C@@H]2CCCN(c3cnc(C(N)=O)c(Nc4ccc(C5CCN(C6Cc7ccc8c(C9CCC(=O)NC9=O)noc8c7C6)CC5)cc4)n3)C2)C1=O (stereo partly shown) [Compound 87]
Dmax [1]: > 90%
IC50 [2, 6]: < 0.31 nM
IC50 [3]: 11 nM

CN1CCN([C@@H]2CCCN(c3cnc(C(N)=O)c(Nc4ccc(C5CCN(CC6Cc7ccc8c(C9CCC(=O)NC9=O)noc8c7C6)CC5)cc4)n3)C2)C1=O (stereo partly shown) [Compound 89]
Dmax [1]: > 90%
IC50 [2, 6]: < 0.31 nM
IC50 [3]: 20 nM
clearance ([4]; iv, 1 mg/kg, Mouse i.v. 1 mpk): 1.72 mL/min/kg
half-life ([4]; iv, 1 mg/kg, Mouse i.v. 1 mpk): 2.8 h
AUC ([4]; iv, 1 mg/kg, Mouse i.v. 1 mpk): 9700 ng·h/mL
half-life [4, 7]: 3 h
AUC [4, 7]: 23700 ng·h/mL
Cmax [4, 7]: 1880 ng/mL
F ([4]; Mouse i.g. 10 mpk): 24.5%

NC(=O)c1ncc(N2CCCCC2)nc1Nc1ccc(C2CCN(C[C@@H]3CCC(n4ccc5c6c(C7CCC(=O)NC7=O)noc6ccc54)C3)CC2)cc1 (stereo partly shown) [Compound 97]
Dmax [1]: > 90%
IC50 ([5]; 72 h): 0.78 nM

CN1CCN([C@@H]2CCCN(c3cnc(C(N)=O)c(Nc4ccc(C5CCN([C@H]6C[C@@H](n7ccc8c9c(C%10CCC(=O)NC%10=O)noc9ccc87)C6)CC5)cc4)n3)C2)C1=O (stereo partly shown) [Compound 100]
Dmax [1]: > 90%
IC50 [2, 6]: < 0.31 nM
IC50 ([3]; 72 h): 0.57 nM

Reference: patent publication US20250152719A1, “FUSED IMIDE DERIVATIVE” (Chia Tai Tianqing Pharmaceutical Group Co., Ltd., priority 2021, published 2025)
